Measurements: ChEMBL document CHEMBL1649549, “Stability of peroxide antimalarials in the presence of human hemoglobin” (Antimicrob Agents Chemother, 2009)

What was measured:
[1] = Stability of compound in presence of […] assessed as pseudo-first order degradation rate constant at 10 uM at 20degC over 24 hrs; assay type: ADME
[2] = Stability of compound in presence water assessed as pseudo-first order degradation rate constant at 10 uM at 20degC over 24 hrs; assay type: physicochemical; conditions: buffer
[3] = Stability of compound in presence of oxyhemoglobin assessed as pseudo-first order degradation rate constant at 10 uM at 20degC over 24 hrs; assay type: ADME

O=C(O)C[C@H]1CC[C@]2(CC1)OO[C@]1(O2)C2CC3CC(C2)CC1C3
Activity [1]: 0.006 h⁻¹ | Activity [2]: 0.006 h⁻¹ | Activity [3]: 0.01 h⁻¹

CO[C@H]1O[C@@H]2O[C@@]3(C)CC[C@H]4[C@H](C)CC[C@@H]([C@H]1C)[C@@]24OO3 [ARTEMETHER]
Activity [1]: 0.002 h⁻¹ | Activity [2]: 0.002 h⁻¹ | Activity [3]: 0.007 h⁻¹

C[C@@H]1CC[C@H]2[C@@H](C)C(=O)O[C@@H]3O[C@@]4(C)CC[C@@H]1[C@]32OO4 [ARTEMISININ]
Activity [1]: 0.003 h⁻¹ | Activity [2]: 0.0004 h⁻¹ | Activity [3]: 0.008 h⁻¹

C[C@H]1[C@@H](O)O[C@@H]2O[C@@]3(C)CC[C@H]4[C@H](C)CC[C@@H]1[C@@]24OO3 [ARTENIMOL]
Activity [1]: 0.004 h⁻¹ | Activity [2]: 0.00001 h⁻¹ | Activity [3]: 0.017 h⁻¹

CC(C)(N)CNC(=O)C[C@H]1CC[C@]2(CC1)OO[C@]1(O2)C2CC3CC(C2)CC1C3 [OZ277]
Activity [1]: 0.013 h⁻¹ | Activity [2]: 0.015 h⁻¹ | Activity [3]: 0.01 h⁻¹
